Data set [1] has as its system mouse fibroblasts NCTC clone 929. Put plainly: Toxicity to mammalian cells (CCK-8). It is filed as cell-based. As to conditions: 24 h, 100 μg/mL. Here is the method:
Assay of toxicity to mammalian cells. The cytotoxicities of a compound to be tested to mouse fibroblasts NCTC clone 929, mouse corneal cells CM120 and human hepatocellular carcinoma cells Hep-G2 were evaluated by a CCK-8 method. Cells were inoculated to a 96-well plate according to the cell amount described in a CCK-8 kit (Beyotime, PRC) specification, and cultured at 37° C. with 5% CO2 for 24 h. Then, a specific concentration of the sample to be tested was added to each well. Inoculation was further performed at 37° C. in an incubator for 24 h. Finally, a CCK-8 solution having a final concentration of 10% was added to each well. Incubation was further performed in the incubator for 1.0 h before absorbance at 450 nm (OD450) of the solution was measured by a microplate reader. According to formula (2), the cytotoxicity of the sample to be tested could be obtained:
[formula] • Asample: absorbance of a well with cells, a CCK8 solution and a sample solution to be tested; • Ablank: absorbance of a well with a culture medium and a CCK8 solution but without cells; and • Ano sample: absorbance of a well with cells and a CCK8 solution but without a sample solution to be tested.

Data set [2] has as its system S. aureus ATCC29213. Put plainly: Evaluation of development tendency of drug resistance. It is filed as cell-based. As to conditions: S. aureus ATCC29213, passage at 0.5×MIC. How it is done:
Evaluation of development tendency of drug resistance. Initial MIC values of compound 60, norfloxacin and gatifloxacin against S. aureus ATCC29213 were obtained by the above MIC determination method. Bacterial cells in a 96-well plate with a concentration of 0.5×MIC were taken out to prepare a bacterial suspension (about 1×10^6 CFU/mL) for the next MIC value determination. After incubating the sample at 37° C. for 24 hours, the change in the MIC value of each compound was measured. This experiment was carried out consecutively for 15 days.

The subject of a further data set is Gram-positive bacteria. The data set is described as follows: Antibacterial activity against Gram-positive bacteria (MIC summary). In kind it is cell-based. The conditions noted are these: 24 h; summary of tables 1 and 2; read-out: minimum inhibitory concentration (MIC) against Gram-positive bacteria. How it is done:
(§1) Antibacterial activity assay. The antibacterial activities of all the compounds were determined according to a broth dilution method specified in Clinical and Laboratory Standards Institute (CLSI) guidelines. Bacterial cells were inoculated on a Mueller-Hinton agar (MHA) plate for overnight culture, and the concentration of the bacterial cells was adjusted to about 1×10^6 colony-forming units (CFU)/mL with phosphate buffered saline (PBS). First, a 1000 μg/mL stock solution (a final concentration of dimethyl sulfoxide (DMSO) was ≤2%) was prepared by dissolving a sample in DMSO/H2O. Then, the stock solution was diluted with Mueller-Hinton Broth (MHB) to an initial concentration of 100 μg/mL, and the sample solution (100 μL) was subjected to two-fold gradient dilution with MHB in a 96-well plate, to obtain 100 μg/mL to 0.78 μg/mL serial dilutions. Then, a bacterial suspension (100 μL) was added to each well of the 96-well plate and mixed with the test sample solution (100 μL). Among them, test systems for compounds 38, 44-45, 58-61 and 63-64 contained 0.05% of Tween 80. Finally, the 96-well plate was incubated at 37° C. for 24 hours. Absorbances at 600 nm at 0 and 24 h were measured. An minimum inhibitory concentration (MIC) value was defined as the lowest concentration where no visible bacterial growth occurred. All experiments were carried out in at least two duplicates, and biological repeatability could be achieved.

Data set [3] has as its system S. aureus ATCC29213. Put plainly: Antibacterial activity assay (broth dilution MIC). In kind it is cell-based. As to conditions: Staphylococcus aureus, 37° C., 24 h, compounds 38, 44-45, 58-61, 63-64 with 0.05% Tween 80. Here is the method: as §1
For orientation: Dilution methods test growth across graded concentrations, often in twofold steps.

In the next data set the test system is E. coli ATCC25922. The data set is described as follows: Antibacterial activity assay (broth dilution MIC). In kind it is cell-based. The conditions noted are these: Escherichia coli, 37° C., 24 h, compounds 38, 44-45, 58-61, 63-64 with 0.05% Tween 80. Here is the method: as §1
The next data set relates to rabbit red blood cells. The data set is described as follows: Hemolytic activity assay. In kind it is cell-based. The conditions noted are these: rabbit, 1 h. How it is done: Hemolytic activity assay. Rabbit red blood cells were centrifuged at 2500 rpm for 3 minutes and then washed twice with PBS. Subsequently, a 8% (v/v) cell suspension was prepared by resuspending the rabbit red blood cells with PBS. A sample was first dissolved in DMSO or PBS (a final concentration of DMSO was ≤0.5%), and then diluted with PBS to prepare two-fold gradient dilutions (400 μg/mL to 3.125 μg/mL). The rabbit red blood cell suspension ([…]) was mixed with the two-fold gradient dilutions ([…]) of the sample. Then, the mixture was added to a sterile 96-well plate, incubated at 37° C. for 1 hour, and then centrifuged at 2500 rpm for 5 minutes. Among them, test systems for compounds 38, 44-45, 58-61 and 63-64 contained 0.05% of Tween 80. The supernatant (100 μL) was transferred to a new 96-well plate. Absorbance at 576 nm was measured using a Biotek multifunctional microplate reader. The positive control group was treated with a 2% Triton X-100 solution, and the negative control group was treated with PBS or 0.5% DMSO. The hemolytic activity was calculated by the following equation: % hemolytic activity=[(Abssample−Absnegative control)/(Abspositive control−Absnegative control)]×100. All experiments were carried out in at least two duplicates, and biological repeatability could be achieved.

The subject of the next data set is MRSA NCTC10442. Put plainly: Antibacterial activity assay (broth dilution MIC). In kind it is cell-based, methicillin-resistant Staphylococcus aureus. The conditions noted are these: Staphylococcus aureus, 37° C., 24 h, compounds 38, 44-45, 58-61, 63-64 with 0.05% Tween 80. How it is done:
as §1

A further data set relates to MRSA N315. Put plainly: Antibacterial activity assay (broth dilution MIC). The conditions noted are these: Staphylococcus aureus, 37° C., 24 h, compounds 38, 44-45, 58-61, 63-64 with 0.05% Tween 80. It is filed as cell-based, methicillin-resistant Staphylococcus aureus. Here is the method: as §1
Data set [4] relates to S. aureus ATCC29213. The data set is described as follows: Mouse model of bacterial keratitis (cornea infection). In kind it is in vivo. The conditions noted are these: topical four times a day for three days; 0.5% compound 60, 5% vancomycin; P<0.01. How it is done: Evaluation of in vivo efficacy. The experiment for evaluating in vivo antibacterial efficacy of animals had been approved by the Laboratory Animal Center of South China Agricultural University and was carried out according to the policy of the Ministry of Health of the People's Republic of China. Female C57BL6 mice (6-8 weeks, with an average weight of 20 g) were used as a bacterial keratitis model. In order to establish an immunosuppressive mouse model, cyclophosphamide (100 mg/kg) was injected intraperitoneally to mice three times 5 days before infection. Bacterial cells (S. aureus ATCC 29213) inoculated onto a Mueller Hinton agar (MHA) plate were suspended with PBS, and the concentration of the bacterial cells was adjusted to about 5×10^7 CFU/mL for corneal infection in mice. First, the mice were anesthetized. Then, the cornea of the left eye of the mouse was scratched with a sterile needle, and 15 μL of bacterial suspension was dropped on the injured cornea. One day after infection, the mice were randomized into three groups (5 mice per group). Three compounds (0.5% 60, 5% glucose solution and 5% vancomycin) were applied topically four times a day for consecutive three days, respectively. […] Viable bacteria were counted by an MHA plate counting method. the P value was calculated using SPSS 22.0 software and P≤0.05 was considered as being statistically significant.

For data set [5], the system named is S. aureus ATCC29213. Put plainly: Mouse model of bacterial peritonitis (abdominal infection). It is filed as in vivo. The conditions noted are these: 58 5 mg/kg intravenously every 4 hours; vancomycin 20 mg/kg IP; 5 mice per group. Here is the method:
CD-1 mice (6-8 weeks, with an average weight of 25 g) were used as an abdominal infection model. First, the mice were injected with S. aureus ATCC29213 (OD600≈1.0) intraperitoneally, and the mice were randomized into three groups (5 mice per group). After 1 hour of infection, one group was dosed with 58 (5 mg/kg) intravenously for treatment, once every 4 hours; and meanwhile, one group dosed with vancomycin (20 mg/kg, IP) was used as a positive control group, and the other group dosed with a 0.9% sodium chloride injection was used as a blank control group. After two days of treatment, the survival rate of the mice was investigated.

Data set [6] can be described thus: Pharmacokinetic characteristics in mice. It is filed as in vivo.

Values after ≈ are worked out from the molar mass of the structure shown. Where a SMILES comes first, the peptide text is derived from it. The star is where a group is joined. X1 = C=C[C@](C)(/C=C/c1ccc(OCC(=O)*)cc1)CCC=C(C)C

As for `C=C[C@](C)(/C=C/c1ccc(OCC(=O)N[C@@H](CCCNC(=N)N)C(=O)N[C@@H](CCCNC(=N)N)C(=O)N[C@@H](CCCNC(=N)N)C(=O)N[C@@H](CCCNC(=N)N)C(=O)OC)cc1)CCC=C(C)C` [Compound 60] (X1-RRRR-OMe), the “cell survival rate, mouse fibroblasts NCTC clone 929” value in [1] (mouse) was determined as 93.7±0.700. In addition, in the data set with S. aureus ATCC29213 [2], the “change in MIC value after 15 days of continuous passage” value was “does not change significantly”. For the same molecule, the MIC in the data set on Gram-positive bacteria is 0.39 to 3.12 µg/mL (≈ 0.409 to 3.28 µM); in the data set with S. aureus ATCC29213 [3] it was 0.39 µg/mL (≈ 0.409 µM); against E. coli ATCC25922 it was 12.5 µg/mL (≈ 13.1 µM); with MRSA NCTC10442 it was 0.78 µg/mL (≈ 0.818 µM); in the data set with MRSA N315, 0.39 µg/mL (≈ 0.409 µM). In addition, in the data set with rabbit red blood cells, the “HC50 (concentration necessary to lyse 50% rabbit red blood cells)” value is given as “more than 400 μg/mL”. Further, the “reduction of the number of bacteria in the infected mouse cornea” value in the data set on S. aureus ATCC29213 [4] amounted to 4.48 log.

On to `CN[C@H](CC(C)C)C(=O)N[C@H]1C(=O)N[C@@H](CC(N)=O)C(=O)N[C@H]2C(=O)N[C@H]3C(=O)N[C@H](C(=O)N[C@H](C(=O)O)c4cc(O)cc(O)c4-c4cc3ccc4O)[C@H](O)c3ccc(c(Cl)c3)Oc3cc2cc(c3O[C@@H]2O[C@H](CO)[C@@H](O)[C@H](O)[C@H]2O[C@H]2C[C@](C)(N)[C@H](O)[C@H](C)O2)Oc2ccc(cc2Cl)[C@H]1O` [vancomycin, reference compound], for which, in the data set with S. aureus ATCC29213 [5], the “survival rate of mice after two days of treatment” value is recorded as 100%. Besides, the “reduction of the number of bacteria in the infected mouse cornea” value in the data set with S. aureus ATCC29213 [4] was determined as 4.16 log.

With `C=C[C@](C)(/C=C/c1ccc(OCC(=O)N[C@@H](CCCNC(=N)N)C(=O)N[C@@H](CCCNC(=N)N)C(=O)N[C@@H](CCCNC(=N)N)C(N)=O)cc1)CCC=C(C)C` [Compound 58], in data set [1] (CCK-8), the “cell survival rate, mouse fibroblasts NCTC clone 929” value amounted to 89.3±0.600. For the same molecule, the MIC in the data set with Gram-positive bacteria is 0.39 to 3.12 µg/mL (≈ 0.499 to 4 µM); against S. aureus ATCC29213 [3], 0.39 µg/mL (≈ 0.499 µM); in the data set with E. coli ATCC25922, 12.5 µg/mL (≈ 16 µM); with MRSA NCTC10442 it was 0.39 µg/mL (≈ 0.499 µM); against MRSA N315, 0.39 µg/mL (≈ 0.499 µM). The “pharmacokinetic characteristics in mice” value in [6] was “excellent pharmacokinetic characteristics”. Besides, the “survival rate of mice after two days of treatment” value with S. aureus ATCC29213 [5] amounted to 100%.

The values are drawn from patent US11912650B2, “Bakuchiol derivatives, pharmaceutically acceptable salts thereof, and preparation method and use of the same” (priority 2020, dated 2024).
